Experimental data taken from patent US7576094B2, “Spiro derivatives as lipoxygenase inhibitors” (Eli Lilly and Company, priority 2004, dated 2009).

Key:
[1] = test system: release of the leukotriene LTB4 from a neutrophil cell line (MPRO cell line); experiment: LTB4-Cell Assay; assay type: cell-based; settings: Mus musculus, 1 h, read-out: inhibition of LTB4 with an EC50
Text: • This procedure was used for measuring the release of the leukotriene LTB4 from a neutrophil cell line using a competitive ELISA technique. Materials and Equipments Materials for Cell Preparation and Experiment • MPRO cell line (ATCC, Catalog # CRL-11422) • Calcium ionophore (A23187) (Sigma, Catalog # C7522) • Nordihydroguaiaretic acid (NDGA) (BioMol ,Catalog # EI101-0001) • Retinoic Acid (all-trans) (ATRA) (Sigma, Catalog # 95152) • Sterile, tissue-culture treated 96-well plates (Corning, Catalog # 3614) Materials for LTB4 ELISA • Precoated (Mouse Anti-Rabbit IgG) EIA 96 Well Strip Plates (Cayman, Catalog # 400004) • Leukotriene B4 AChE Tracer (Cayman Catalog # 420110) • Leukotriene B4 EIA Antiserum (Cayman Catalog # 420112) • Ellman's Reagent (Cayman Catalog # 400050) • EIA Buffer Concentrate (10×) (Cayman Catalog # 400060) • Wash Buffer Concentrate (400×) (Cayman Catalog # 400062) • Plastic plate covers (Cayman Catalog # 400012) Procedure
A mouse promyelocytic cell line (MPRO) was used in this assay. These cells are committed immature neutrophils that can be differentiated into mature neutrophils by treatment with 10 μM all-trans retinoic acid for 72 hours.
Following 72 hours of differentiation, cells were stimulated with 1 μM of a calcium ionophore (A23187) in the presence or absence of test compound or vehicle for 1 hour at 37° C. After this time, supernatant was removed from the cells and the LTB4 levels were determined following manufacturer's instructions, using a Leukotriene B4 EIA kit from Cayman (Cat # 5201 11). The negative controls were media samples from differentiated but un-stimulated cells. The compounds were screened at 5 concentrations in quadruplicate starting at 10 μM.

[2] = molecular target: T1, human recombinant 5-Lipoxygenase (Homo sapiens, UniProt P09917); experiment: 5-Lipoxygenase Enzyme Assay; assay type: biochemical; settings: 70 μM arachidonic acid, 10 minute incubation at room temperature, FOX reagent, absorbance at 620 nm; read-out: inhibition of 5-Lipoxygenase with an IC50
T1 sequence (P09917 1-674): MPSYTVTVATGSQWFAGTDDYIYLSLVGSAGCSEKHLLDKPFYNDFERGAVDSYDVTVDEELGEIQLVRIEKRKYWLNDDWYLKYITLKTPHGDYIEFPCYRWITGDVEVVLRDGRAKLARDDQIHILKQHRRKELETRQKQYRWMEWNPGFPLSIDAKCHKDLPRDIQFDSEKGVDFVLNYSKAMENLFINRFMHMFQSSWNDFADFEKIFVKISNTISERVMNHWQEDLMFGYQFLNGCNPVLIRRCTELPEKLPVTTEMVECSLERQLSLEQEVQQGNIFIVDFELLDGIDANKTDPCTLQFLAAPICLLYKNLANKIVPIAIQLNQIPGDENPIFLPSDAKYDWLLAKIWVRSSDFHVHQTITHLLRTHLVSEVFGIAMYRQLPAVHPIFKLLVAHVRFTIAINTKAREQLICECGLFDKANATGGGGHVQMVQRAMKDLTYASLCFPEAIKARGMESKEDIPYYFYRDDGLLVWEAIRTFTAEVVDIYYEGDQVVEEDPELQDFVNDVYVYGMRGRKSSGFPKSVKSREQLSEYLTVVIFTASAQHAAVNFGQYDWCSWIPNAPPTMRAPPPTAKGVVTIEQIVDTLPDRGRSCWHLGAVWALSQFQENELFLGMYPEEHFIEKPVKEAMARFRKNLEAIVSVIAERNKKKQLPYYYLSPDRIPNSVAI
Text: This procedure was used for measuring the enzymatic activity of human recombinant 5-Lipoxygenase using a colorimetric method based on the ferric oxidation of xylenol orange.
• 96 well flat bottom microfilter plates (VWR, Catalog # 62402-933 9295) • Lipoxygenase screening assay buffer (Cayman, Catalog # 760710) • Human recombinant 5-Lipoxygenase (Cayman, Catalog # 60402) • Arachidonic Acid (Sigma, Catalog # A3555) • Xylenol orange tetra sodium salt (Aldrich, Catalog # 227854) • Iron (II) sulfate heptahydrate (Sigma, Catalog # F7002) • Sulfuric acid (95-98%) [18 M] • Methanol Procedure
Human recombinant 5-Lipoxygenase (Cayman Cat # 60402) was used in this assay. The test compound and/or vehicle was added to 0.5 μL 5-Lipoxygenase in 50 mM Tris-HCl buffer, pH 7.4. The reaction was initiated by addition of 70 μM arachidonic acid in Tris-HCl buffer, pH 7.4, and terminated after a 10 minute incubation at room temperature by addition of FOX reagent (25 mM sulfuric acid, 100 μM xylenol orange, 100 μM iron (II) sulfate, methanol:water 9:1). The yellow color of acidified xylenol orange was converted to a blue color by the lipid hydroperoxide-mediated oxidation of Fe^2+ ions and the interaction of the resulting Fe^3+ ions with the dye. The complex was allowed to form during a 1 hour incubation at room temperature with shaking. Absorbance of the Fe^3+ complex was then measured at […] using a spectrophotometer.
Negative controls contained enzyme during the incubation step but substrate was not added until after the FOX reagent. Compounds were screened at 5 concentrations in triplicate starting at 10 μM

[3] = test system: LTB4 production in human whole blood; experiment: Inhibition of LTB4 Production in Blood; assay type: cell-based; settings: 1 h, 20 μM A23187, 60 minutes at 37° C., LTB4 in plasma by ELISA, read-out: protection against LTB4 at an EC50
Procedure: • Human whole blood (Na citrate) (Stanford Blood Center) • A23187, (Sigma, Cat# C-7522) • Leukotriene B4 EIA reagents (Cayman Chemical, Cat # 520111) • BWA4C (Sigma, Cat # B7559) Procedure Preparation of A23187:
A23187 was prepared as a 10 mM stock solution in DMSO (aliquots can be stored at −20° C.). On the day of the assay the stock solution was diluted as follows: 70 μL 10 mM stock added to 1.6 mL plasma to give a working concentration of 0.42 mM.
From a 30 mM stock solution in DMSO, test articles were diluted to a working concentration of 600 μM in PBS (i.e. 10 μL stock solution+490 μL PBS). This is the highest concentration (gives a final testing concentration of 30 μM). From this 600 μM solution test articles were serially diluted 1:3 in PBS to give a dose-response curve. 10 μL of each concentration of test article was then added to 4 wells of a 96-well plate (i.e. testing in quadruplicate). A positive control compound, BWA4C was used in every assay.
Human whole blood was added to the plates containing compounds (190 μL per well) and mixed well. The blood was incubated with compound at 37° C. for 15 minutes. Following this incubation, 10 μL of 0.42 mM A23187 was added to each well except the negative control wells to give a final calcium ionophore concentration of 20 μM. The plates were then incubated at 37° C. for 60 minutes. After the incubation period, plates were centrifuged for 15 min at 2000 g at 4° C. in sealed microplate buckets. Plasma was then removed for quantitation of LTB4 levels by ELISA.
LTB4 levels in the plasma were determined using a commercially available ELISA kit from Cayman Chemicals. The ELISA was run according to the manufacturer's instructions. The LTB4 levels in the vehicle control sample were then compared to those in which the test article had been added. From this a percent inhibition of LTB4 production by each concentration of test article was calculated and the IC50 was determined.

SMILES | EC50 [1] [µM] | IC50 [2] [µM] | EC50 [3] [µM]
CONCC1=Cc2c(cc(C)c(OC(=O)C(C)(C)C)c2C)OC12CCC2 [3-[(methoxyamino)methyl]-5,7-dimethylspiro[chromene-2,1′-cyclobutan]-6-yl pivalate] | < 5 | – | –
CCO/N=C1\CC2(CCC2)Oc2cc(CC)c(O)c(CC)c21 [5,7-diethyl-6-hydroxyspiro[chromene-2,1′-cyclobutan]-4(3H)-one O-ethyloxime] | < 5 | < 0.3 | –
CCc1cc2c(c(CC)c1O)CC(CO)C1(CCC1)O2 (stereo not drawn) [5,7-diethyl-3-(hydroxymethyl)spiro[chroman-2,1′-cyclobutan]-6-ol] | < 5 | – | < 10
COC1Cc2c(C)c(O)c(C)c(C)c2OC12CCC2 (stereo not drawn) [3-methoxy-5,7,8-trimethyl-3,4-dihydrospiro[chromene-2,1′-cyclobutan]-6-ol] | < 5 | – | < 10
CCONCC1Cc2c(cc(C)c(O)c2C)OC12CCC2 (stereo not drawn) [3-[(ethoxyamino)methyl]-5,7-dimethyl-3,4-dihydrospiro-[chromene-2,1′-cyclobutan]-6-ol] | < 5 | – | < 10
Cc1cc2c(c(C)c1O)C(NS(=O)(=O)c1ccccc1)CC1(CCC1)O2 (stereo not drawn) [N-(6-hydroxy-5,7-dimethyl-3,4-dihydrospiro[chromene-2,1′-cyclobutan]-4-yl)benzenesulfonamide] | < 5 | < 0.3 | –
Cc1cc(O)c(Cl)c2c1OC1(CCC1)CC2 [5-chloro-8-methyl-3,4-dihydrospiro[chromene-2,1′-cyclobutan]-6-ol] | < 5 | – | –
Cc1c(C)c2c(c(C)c1O)C(O)CC1(CCC1)O2 (stereo not drawn) [5,7,8-trimethyl-3,4-dihydrospiro[chromene-2,1′-cyclobutane]-4,6-diol] | < 5 | – | –
Cc1c(O)cc2c(c1C)N(CCCN1C(=O)c3ccccc3C1=O)CC1(CC1)C2 [2-(3-(6′-hydroxy-7′,8′-dimethyl-2′,4′-dihydro-1′H-spiro[cyclopropane-1,3′-quinoline]-1′-yl)propyl)isoindoline-1,3-dione] | < 5 | – | –
Cc1cc(O)c(C(C)C)c2c1OC1(CCC1)CC2 [5-isopropyl-8-methyl-3,4-dihydrospiro[chromene-2,1′-cyclobutan]-6-ol] | < 5 | – | –
CCO/N=C1\CC2(CCC2)Oc2c(C)c(C)c(O)c(CC)c21 [5-ethyl-6-hydroxy-7,8-dimethylspiro[chromene-2,1′-cyclobutan]-4(3H)-one O-ethyloxime] | < 5 | < 0.3 | –
Cc1c(C)c2c(c(C)c1O)C(=O)CC1(CCC1)S2 [6′-hydroxy-5′,7′,8′-trimethylspiro[cyclobutane-1,2′-thiochromen]-4′(3′H)-one] | < 5 | < 0.3 | –
CCc1c(O)c(C)c(C)c2c1/C(=N/OC)CC1(CCC1)O2 [5-ethyl-6-hydroxy-7,8-dimethylspiro[chromene-2,1′-cyclobutan]-4(3H)-one O-methyloxime] | < 5 | < 0.3 | –
C=Cc1c(C)c(O)c(C)c2c1OC1(CCC1)CC2 [5,7-dimethyl-8-vinyl-3,4-dihydrospiro[chromene-2,1′-cyclobutan]-6-ol] | < 5 | < 0.3 | –
Cc1c(C)c2c(c(C)c1OCc1ccc3ccccc3n1)CCC1(CCC1)O2 [2-{[(5,7,8-trimethyl-3,4-dihydrospiro[chromene-2,1′-cyclobutan]-6-yl)oxy]methyl}quinoline] | < 5 | – | –
Cc1c(C)c2c(c(C)c1O)C(C#N)=CC1(CCC1)O2 [6-hydroxy-5,7,8-trimethylspiro[chromene-2,1′-cyclobutane]-4-carbonitrile] | < 5 | – | –
CCONC1CC2(CCC2)Oc2cc(C)c(O)c(C)c21 (stereo not drawn) [4-(ethoxyamino)-5,7-dimethyl-3,4-dihydrospiro[chromene-2,1′-cyclobutan]-6-ol] | < 5 | < 0.3 | –
Cc1c2c(c(C)c(Cl)c1OC(=O)CN(C)C)OC1(CCC1)CC2 [7-chloro-5,8-dimethyl-3,4-dihydrospiro[chromene-2,1′-cyclobutan]-6-yl (dimethylamino)acetate] | < 5 | < 0.3 | –
CON(C)C1CC2(CCC2)Oc2c(C)c(C)c(O)c(C)c21 (stereo not drawn) [4-[methoxy(methyl)amino]-5,7,8-trimethyl-3,4-dihydrospiro[chromene-2,1′-cyclobutan]-6-ol] | < 5 | – | –
COC(=O)C1CC(c2c(C)c(O)c(C)c3c2OC2(CCC2)CC3)=NO1 (stereo not drawn) [methyl 3-(6-hydroxy-5,7-dimethyl-3,4-dihydrospiro[chromene-2,1′-cyclobutan]-8-yl)-4,5-dihydroisoxazole-5-carboxylate] | < 5 | < 0.3 | –
Cc1c(OC(=O)CN(C)C)cc2c(c1C)OC1(CCC1)CC2 [7,8-dimethyl-3,4-dihydrospiro[chromene-2,1′-cyclobutan]-6-yl (dimethylamino)acetate] | < 5 | – | –
Cc1c(O)c(C(C)(C)C)cc2c1C(O)CC1(CCC1)O2 (stereo not drawn) [7-tert-butyl-5-methylspiro[chroman-2,1′-cyclobutane]-4,6-diol] | < 5 | – | –
CCCCCCNC1c2c(C)c(O)c(C)c(C)c2OCC12CCC2 (stereo not drawn) [4-(hexylamino)-5,7,8-trimethylspiro[chroman-3,1′-cyclobutan]-6-ol] | < 5 | < 0.3 | –
